The structures appear in SMILES notation. Where two headings read alike, the source gives them in different places.

Assay [1] deals with GDP-bound KRAS protein (aa 1-169), containing both G12D and C118A amino acid substitutions (Homo sapiens (Human), UniProt P01116, C118A/G12D). Description: KRAS G12D Coupled Nucleotide Exchange Assay. Conditions: read-out: KRAS G12D Coupled Exchange IC50. It is filed as biochemical.
The target in assay [2] is His-tagged KRAS G12D protein (Homo sapiens (Human), UniProt P01116, G12D). The experiment in a line: KRAS G12D TR-FRET Assay. Conditions: read-out: KRAS G12D Binding IC50. It is filed as binding. In a few lines:
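His-tagged KRAS G12D (diluted to 20 nM in pH 7.4 HEPES buffer with 10 mM MgCl2 and 10 μM GDP) was preincubated with titrated compound for 30 min at room temperature. Biotinylated KRPep-2d peptide (diluted to 20 nM) was then added for 1 h, and displacement was monitored by TR-FRET.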
In general terms: In TR-FRET formats the signal depends on donor and acceptor labels being close together.

Another assay concerns AsPC-1 cells. The experiment in a line: AsPC-1 CTG Assay (CellTiter-Glo cell viability). Format: cell-based, human. Conditions: AsPC-1, 72 h, first value of the cell, read-out: G12D/C/V Cell Proliferation CTG (72 h) AsPC-1. In a few lines:
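Human pancreatic AsPC-1 or colon SW620 cells in RPMI 1640 with 10% FBS, seeded overnight, then exposed to serially diluted compound for 72 h at 37 °C. CellTiter-Glo luminescence normalized to DMSO control; IC50 from a 4-parameter logistic model.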
A general note: ATP-based viability assays read luminescence as a measure of living cells.

The test system of assay [3] is Phosphorylation of ERK1/2 in AsPC-1 cells. Description: Phospho-ERK1/2 MSD Assay. Format: cell-based, human. The conditions noted are these: read-out: 2 h p-ERK (AsPC-1 cells), IC50. In a few lines:
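Read-out: MSD electrochemiluminescent detection of phosphorylated ERK1/2 in whole-cell lysates, fitted to a 4-parameter logistic curve for IC50. Prior to lysis, AsPC-1 cells (25,000 per well) received a 2 h compound dose-response at 37 °C.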

A further assay concerns MIA PaCa-2 cells. The experiment in a line: MIA PaCa-2 CTG Assay (CellTiter-Glo cell viability). It is filed as cell-based, human. Conditions: Mia PaCa-2, 72 h, second value of the cell, read-out: G12D/C/V Cell Proliferation CTG (72 h) Mia PaCa-2. In a few lines:
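Human pancreatic carcinoma cells in RPMI 1640 with 10% FBS, seeded at 1.67E+04 cells/mL and left overnight, were treated with serially diluted compound for 72 h at 37° C, 5% CO2. Viability was read by CellTiter-Glo luminescence normalized to DMSO; IC50 came from a 4-parameter logistic fit.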

Chain of His-tagged KRAS G12D protein (P01116 other isoform, or with tags, fused parts or gaps G12D): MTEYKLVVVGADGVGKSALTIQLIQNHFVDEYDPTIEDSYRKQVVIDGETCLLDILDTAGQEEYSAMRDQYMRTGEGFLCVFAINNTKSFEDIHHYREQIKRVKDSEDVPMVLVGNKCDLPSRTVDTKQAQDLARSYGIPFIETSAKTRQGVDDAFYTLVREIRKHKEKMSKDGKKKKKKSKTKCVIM
Chain of GDP-bound KRAS protein (aa 1-169), containing both G12D and C118A amino acid substitutions (P01116 other isoform, or with tags, fused parts or gaps G12D/C118A): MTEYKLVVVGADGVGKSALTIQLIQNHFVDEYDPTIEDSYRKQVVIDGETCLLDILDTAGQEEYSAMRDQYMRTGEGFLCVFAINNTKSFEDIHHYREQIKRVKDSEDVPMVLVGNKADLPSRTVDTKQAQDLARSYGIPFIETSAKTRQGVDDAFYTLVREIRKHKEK

For `O=C1OCCc2c(Cl)cc3[nH]ncc3c2-c2ncc3c(nc(OC[C@@]45CCCN4C[C@H](F)C5)nc3c2F)N2CCOCC(CO1)C2` (some centres unmarked) [Example 220], the IC50 in assay [1] turned out to be 3 nM; in assay [2] it was 6 nM; with AsPC-1 cells (Homo sapiens, ASPC1, 72 h), 816 nM; in assay [3] (Homo sapiens, ASPC1, 2 h), 58.9 nM; in the assay on MIA PaCa-2 cells (Homo sapiens), 64 nM.

Regarding `O=C1OCCc2c(Cl)cc3[nH]ncc3c2-c2ncc3c(nc(OC[C@@]45CCCN4C[C@H](F)C5)nc3c2F)N2CCCCC(CO1)C2` (some centres unmarked) [Example 222], the IC50 is 2 nM in assay [1]; 3 nM in assay [2]; 287 nM in the assay with AsPC-1 cells (Homo sapiens, ASPC1, 72 h); 9.4 nM in assay [3] (Homo sapiens, ASPC1, 2 h); 52 nM in the assay with MIA PaCa-2 cells (Homo sapiens).

As to `Fc1c2ncc3c(nc(OC[C@@]45CCCN4C[C@H](F)C5)nc13)N1CCC[C@@H](Cc3ncc(o3)CCc3c(Cl)cc4[nH]ncc4c3-2)C1` [Example 231], the IC50 in assay [1] was determined as 4 nM; in assay [2], 6 nM; with AsPC-1 cells (Homo sapiens, ASPC1, 72 h) it was 29 nM; in assay [3] (Homo sapiens, ASPC1, 2 h) it was 11.6 nM; in the assay on MIA PaCa-2 cells (Homo sapiens), 42 nM.

`Fc1c2ncc3c(nc(OC[C@@]45CCCN4C[C@H](F)C5)nc13)N1CCC[C@H](C1)c1cnn(n1)CCCc1c(Cl)cc3[nH]ncc3c1-2` [Example 259]: the IC50 in assay [1] turned out to be 3 nM; in assay [2] it was 4 nM; in the assay with AsPC-1 cells (Homo sapiens, ASPC1, 72 h), 215 nM; in assay [3] (Homo sapiens, ASPC1, 2 h), 25.3 nM; with MIA PaCa-2 cells (Homo sapiens), 126 nM.

Turning to `CN1CCC[C@H]1COc1nc2c3cnc(c(F)c3n1)-c1c(c(Cl)cc3[nH]ncc13)CCCOCC(=O)N1CC[C@@H]3CCN2C[C@@H]31` [Example 267, (29S,33R)-18-chloro-34-fluoro-4-(((2S)-1-methyl-2-pyrrolidinyl)methoxy)-23-oxa-1,3,5,9,14,15,26-heptaazaheptacyclo[24.5.2.1~6,10~.0~2,7~.0~11,19~.0~12,16~.0~29,33~]tetratriaconta-2,4,6(34),7,9,11,13,16,18-nonaen-25-one], the IC50 in assay [1] was 2 nM; in assay [2] it was 4 nM; with AsPC-1 cells (Homo sapiens, ASPC1, 72 h), 80 nM; in assay [3] (Homo sapiens, ASPC1, 2 h), 33.5 nM; in the assay on MIA PaCa-2 cells (Homo sapiens), 121 nM.

Consider `O=C1COCCc2c(Cl)cc3[nH]ncc3c2-c2ncc3c(nc(OC[C@@]45CCCN4C[C@H](F)C5)nc3c2F)N2CC[C@H]3CCN1[C@H]3C2` [Example 270, (28S,32R)-18-chloro-33-fluoro-4-(((2R,7aS)-2-fluorotetrahydro-1H-pyrrolo[1,2-a]pyrrol-7a(5H)-yl)methoxy)-22-oxa-1,3,5,9,14,15,25-heptaazaheptacyclo[23.5.2.1~6, 10~.0~2,7~.0~11,19~.0~12,16~.0~28,32~]tritriaconta-2,4,6,8,10(33),11,13,16,18-nonaen-24-one], for which the IC50 turned out to be 2 nM in assay [1]; 7 nM in assay [2]; 606 nM in the assay on AsPC-1 cells; 123 nM in assay [3] (2 h); 675 nM with MIA PaCa-2 cells.

Regarding `Cc1cc2[nH]ncc2c2c1CCCOCC(=O)N1CC[C@@H]3CCN(C[C@@H]31)c1nc(OC[C@@]34CCCN3C[C@H](F)C4)nc3c(F)c-2ncc13` [Example 277, (29S,33R)-34-fluoro-4-(((2R,7aS)-2-fluorotetrahydro-1H-pyrrolo[1,2-a]pyrrol-7a(5H)-yl)methoxy)-18-methyl-23-oxa-1,3,5,9,14,15,26-heptaazaheptacyclo[24.5.2.1~6,10~.0~2,7~.0~11,19~.0~12,16~.0~29,33~]tetratriaconta-2,4,6,8,10(34),11,13,16,18-nonaen-25-one], the IC50 in assay [1] is 2 nM; in assay [2], 3 nM; with AsPC-1 cells (Homo sapiens, ASPC1, 72 h), 88 nM; in assay [3] (Homo sapiens, ASPC1, 2 h), 11 nM; in the assay with MIA PaCa-2 cells (Homo sapiens), 60 nM.

For `C[C@@]12CCCCN(C1)c1nc(OC[C@@]34CCCN3C[C@H](F)C4)nc3c(F)c(ncc13)-c1c(c(Cl)cc3[nH]ncc13)CCCOC(=O)N2` [Example 290, (26R)-18-chloro-32-fluoro-4-(((2R,7aS)-2-fluorotetrahydro-1H-pyrrolo[1,2-a]pyrrol-7a(5H)-yl)methoxy)-26-methyl-23-oxa-1,3,5,9,14,15,25-heptaazahexacyclo[24.4.1.1~6,10~.0~2,7~.0~11,19~.0~12,16~]dotriaconta-2,4,6(32),7,9,11,13,16,18-nonaen-24-one], the IC50 in assay [1] was determined as 2 nM; in assay [2] it was 4 nM; with AsPC-1 cells (Homo sapiens, ASPC1, 72 h), 36 nM; in assay [3] (Homo sapiens, ASPC1, 2 h), 3.1 nM; in the assay on MIA PaCa-2 cells (Homo sapiens), 32 nM.

As for `Fc1c2ncc3c(nc(OC[C@@]45CCCN4C[C@H](F)C5)nc13)N1CCCC[C@H](C1)c1cnn(n1)CCCc1c(Cl)cc3[nH]ncc3c1-2` [Example 296, (1R)-10-chloro-33-fluoro-24-(((2R,7aS)-2-fluorotetrahydro-1H-pyrrolo[1,2-a]pyrrol-7a(5H)-yl)methoxy)-4,5,13,14,19,23,25,27,34-nonaazaheptacyclo[25.4.1.1~2,5~.1~18,22~.0~9,17~.0~12,16~.0~21,26~]tetratriaconta-2(34),3,9,11,14,16,18(33),19,21,23,25-undecaene], the IC50 in assay [1] was found to be 4 nM; in assay [2], 4 nM; in the assay on AsPC-1 cells (Homo sapiens, ASPC1, 72 h), 150 nM; in assay [3] (Homo sapiens, ASPC1, 2 h), 12.6 nM; with MIA PaCa-2 cells (Homo sapiens) it was 53 nM.

`O=C1OCCCc2c(Cl)cc3[nH]ncc3c2-c2cc3nc(OC[C@@]45CCCN4C[C@H](F)C5)nc(c3cn2)N2CCOC[C@H](C2)O1` [Example 303, (26S)-18-chloro-4-(((2R,7aS)-2-fluorotetrahydro-1H-pyrrolo[1,2-a]pyrrol-7a(5H)-yl)methoxy)-23,25,28-trioxa-1,3,5,9,14,15-hexaazahexacyclo[24.4.1.1~6,10~.0~2,7~.0~11,19~.0~12,16~]dotriaconta-2,4,6,8,10(32),11,13,16,18-nonaen-24-one]: the IC50 in assay [1] worked out at 2 nM; in assay [2] it was 4 nM; in the assay with AsPC-1 cells (Homo sapiens, ASPC1, 72 h), 155 nM; in assay [3] (Homo sapiens, ASPC1, 2 h), 10 nM; in the assay on MIA PaCa-2 cells (Homo sapiens), 75 nM.

As to `CN(C)CC1(COc2nc3c4cc(F)c(c(F)c4n2)-c2c(c(Cl)cc4[nH]ncc24)CCCOC(=O)O[C@@H]2COCCN3C2)CC1` [Example 305, p-(26S)-18-chloro-4-((1-((dimethylamino)methyl)cyclopropyl)methoxy)-9,32-difluoro-23,25,28-trioxa-1,3,5,14,15-pentaazahexacyclo[24.4.1.1~6,10~.0~2,7~.0~11,19~.0~12,16~]dotriaconta-2,4,6,8,10(32),11,13,16,18-nonaen-24-one], the IC50 in assay [1] turned out to be 3 nM; in assay [2], 4 nM; in the assay with AsPC-1 cells (Homo sapiens, ASPC1, 72 h), 61 nM; in assay [3] (Homo sapiens, ASPC1, 2 h), 17.7 nM; in the assay with MIA PaCa-2 cells (Homo sapiens) it was 134 nM.

Consider `CN1C[C@H](F)C[C@H]1COc1nc2c3cnc(c(F)c3n1)-c1c(c(Cl)cc3[nH]ncc13)CCCOC(=O)O[C@]1(C)COCCN2C1` [Example 318, (26S)-18-chloro-32-fluoro-4-(((2S,4R)-4-fluoro-1-methyl-2-pyrrolidinyl)methoxy)-26-methyl-23,25,28-trioxa-1,3,5,9,14,15-hexaazahexacyclo[24.4.1.1~6,10~.0~2,7~.0~11,19~.0~12,16~]dotriaconta-2,4,6,8,10(32),11,13,16,18-nonaen-24-one], for which the IC50 in assay [1] was 3 nM; in assay [2], 5 nM; with AsPC-1 cells (Homo sapiens, ASPC1, 72 h) it was 183 nM; in assay [3] (Homo sapiens, ASPC1, 2 h) it was 35.1 nM; in the assay on MIA PaCa-2 cells (Homo sapiens) it was 33 nM.

For `CN1C[C@H](F)C[C@H]1COc1nc2c3cnc(c(F)c3n1)-c1c(c(Cl)cc3[nH]ncc13)CCOC(=O)O[C@H]1C[C@@]3(CCCN2C3)C1` [Example 320, (1S,3R)-10-chloro-32-fluoro-24-(((2S,4R)-4-fluoro-1-methyl-2-pyrrolidinyl)methoxy)-4,6-dioxa-13,14,19,23,25,27-hexaazaheptacyclo[25.3.1.1~1,3~.1~18,22~.0~9,17~.0~12,16~.0~21,26~]tritriaconta-9,11,14,16,18(32),19,21,23,25-nonaen-5-one], the IC50 in assay [1] stood at 3 nM; in assay [2], 4 nM; in the assay on AsPC-1 cells (Homo sapiens, ASPC1, 72 h), 137 nM; in assay [3] (Homo sapiens, ASPC1, 2 h), 13.8 nM; in the assay on MIA PaCa-2 cells (Homo sapiens), 80 nM.
